Target: T1, StSUT4 (Solanum tuberosum, UniProt Q9FV92)
T1 construct: gene SUT4; StSUT4 cDNA in pDR196, expressed in yeast cells
T1 sequence (Q9FV92 1-500): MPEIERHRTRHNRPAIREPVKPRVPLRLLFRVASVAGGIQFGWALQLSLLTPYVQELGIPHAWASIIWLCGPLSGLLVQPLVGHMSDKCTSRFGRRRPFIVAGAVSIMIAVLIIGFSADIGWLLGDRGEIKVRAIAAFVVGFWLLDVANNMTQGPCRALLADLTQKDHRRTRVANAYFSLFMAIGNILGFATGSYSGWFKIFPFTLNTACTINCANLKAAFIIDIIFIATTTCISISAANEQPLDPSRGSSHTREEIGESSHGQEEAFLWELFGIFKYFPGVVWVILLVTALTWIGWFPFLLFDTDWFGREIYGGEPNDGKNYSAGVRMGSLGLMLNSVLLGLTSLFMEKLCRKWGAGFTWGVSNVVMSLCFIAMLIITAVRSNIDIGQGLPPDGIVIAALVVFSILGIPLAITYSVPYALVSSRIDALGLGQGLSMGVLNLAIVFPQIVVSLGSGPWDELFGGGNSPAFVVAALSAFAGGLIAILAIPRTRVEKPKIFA
Test: competition with esculin uptake in yeast, fluorescence
Format: cell-based
Details: 8 mM esculin, pH 5.0, 20 mM unlabelled sucrose

% inhibition at 20 mM: ~ almost 50%
Structure (SMILES): OC[C@H]1O[C@@](CO)(O[C@H]2O[C@H](CO)[C@@H](O)[C@H](O)[C@H]2O)[C@@H](O)[C@@H]1O [sucrose]

From article PMC9730799, “Elucidation of the interactome of the sucrose transporter StSUT4: sucrose transport is connected to ethylene and calcium signalling” (Journal of Experimental Botany, 2022)
